Experimental findings from publication PMC10107299, “Neutralizing the Impact of the Virulence Factor LecA from Pseudomonas aeruginosa on Human Cells with New Glycomimetic Inhibitors” (Angewandte Chemie (International Ed. in English), 2023) are described below.

Data set [1] can be described thus: In vivo pharmacokinetic study in mice. More on the design: species or system CD-1 mice. The settings on record: 1 mg kg^−1 i.v.; for Cmax: male, CD-1, mouse, urine, iv. The method, then:
Encouraged by these promising in vitro results, an in vivo pharmacokinetic study was conducted for H2 and L2 in mice (1 mg kg^−1, i. v.) and in rats for L2 (10 mg kg^−1, i. v.). Compound concentrations were monitored in plasma and urine (Figure 6). H2 and L2 were cleared from mouse plasma within 1 h. Both compounds rapidly reached high concentrations in urine, several orders of magnitude above their respective in vitro LecA binding affinity. In fact, concentrations above the K ds were detected over the entire observation period of 5 h. […] In rats, higher amounts of L2 were detected both in plasma and urine, not solely corresponding to the 10‐fold increased dose. […] Importantly, high levels of L2 were present in rat urine even 24 h after administration.
Pharmacokinetic studies in mice
For pharmacokinetic experiments, outbred male CD-1 mice (Charles River, Germany), 4-weeks-old, were used. The animal studies were conducted in accordance with the recommendations of the European Community (Directive 86/609/EEC, 24 November 1986). All animal procedures were performed in strict accordance with the German regulations of the Society for Laboratory Animal Science (GV-SOLAS) and the European Health Law of the Federation of Laboratory Animal Science Associations (FELASA). Animals were excluded from further analysis if sacrifice was necessary according to the humane endpoints established by the ethical board. All experiments were approved by the ethical board of the Niedersächsisches Landesamt für Verbraucherschutz und Lebensmittelsicherheit, Oldenburg, Germany (33.19-42502-04-20/3522). L2 and H2 were dissolved in water and administered in individual PK studies (N = 2 per study) at 1 mg/kg intravenously. Up to 25 µl blood was collected from the lateral tail vein and time points t = 0.25, 0.5, 1 and 3 hours. At t = 5 hours animals were euthanized to collect blood. At time points t = 0.25, 0.5, 1, 3 and 5 hours spontaneous urine was collected as well. Whole blood was collected into Eppendorf tubes coated with 0.5 M EDTA and immediately spun down at […]
15870 x g for 10 min at 4 °C. […]
Rats were provided with a catheter in the jugular vein 2 - 3 days prior to drug administration and blood sampling. According to national animal welfare guidelines, rats were treated once with Carprofen (5 mg/kg) directly after catheterization. Catheter was rinsed daily with K3EDTA. […]
First, a calibration curve was prepared by spiking different concentrations of L2 and H2 into mouse plasma, rat plasma or mouse urine (matrix for mouse and rat PK samples) from CD-1 mice. […] Samples from the mouse PK study with H2 in mice and from the rat PK study with L2 were analyzed via HPLC-MS/MS as described in the HPLC-MS analysis section above. PK samples from the mouse PK study with L2 were analyzed using an Agilent 1290 […]

A short description of data set [2]: Thermodynamic solubility in TBS/Ca2+ buffer. The format is physicochemical. The text has this:
Next, we quantified the solubility of at least one representative of each new class and of one parent bisacylhydrazone in aqueous media (Table 1).

Another data set relates to plasma protein. Briefly: Plasma protein binding (rapid equilibrium device), human plasma. The format is in vitro ADME. As to conditions: 1 µM. As to the method: mixer (Eppendorf). Acetonitrile and caffeine were dispensed using a Mantis Formulatrix. Then samples were centrifuged for 20 min at 2.270 x g at 4 °C and the supernatants were transferred to 96-well Greiner V-bottom plates. Peak areas of each compound and of the internal standard were analyzed using the MultiQuant 3.0 software (AB Sciex). Peak areas of the respective compound were normalized to the internal standard peak area and to the respective peak areas at time point 0 min: (C/D)/(A/B) with A: peak area of the compound at time point 0 min, B: peak area of the internal standard at time point 0 min, C: peak area of the compound at the respective time point, D: peak area of the internal standard at the respective time point. […]
Assessment of plasma protein binding
Plasma protein binding was assessed using the rapid equilibrium device (RED) system from ThermoFisher. Compounds were dissolved in DMSO. […]
high plasma protein binding. Compounds were diluted in murine plasma (from CD-1 mice, pooled) or in human plasma (human donors, both genders, pooled) to a final concentration of 1 µM. Dialysis buffer and plasma samples were added to the respective chambers according the manufacturer’s protocol. The RED plate was sealed with a tape and incubated at 37 °C for 2 hours at 800 rpm on an Eppendorf MixMate vortex-mixer. Then samples were withdrawn from the respective chambers. To 25 µL of each dialysis sample, 25 µL of plasma and to 25 µL of plasma sample, 25 µL of dialysis buffer was added. Then 150 µL ice-cold extraction solvent (ACN/H2O (90:10) containing 12.5 ng/mL caffeine as internal standard) was added. Samples were incubated for 30 min on ice. Then samples were centrifuged at 4 °C at 2270 x g for 10 min.
Supernatants were transferred to Greiner V-bottom 96-well plates and sealed with a tape. The […]
percentage of bound compound was calculated as follows:
(1) % free = (concentration buffer chamber / concentration plasma chamber) *100 […]
Samples were analyzed using an Agilent 1290 Infinity II HPLC system coupled to an AB Sciex QTrap 6500plus mass spectrometer. LC conditions were as follows: column: Agilent […]
Zorbax Eclipse Plus C18, 50x2.1 mm, 1.8 µm; temperature: 30 °C; injection volume: 5 µL per […]
sample; flow rate: 700 µL/min. Samples were run under acidic and buffered conditions.
Solvents for acidic conditions: A1: water + 0.1% formic acid; solvent B1: 95% acetonitrile/5% […]
H2O + 0.1% formic acid; solvents for buffered conditions: A2: 95% water + 5% acetonitrile + […]
5 mM ammonium acetate + 40 µL/L acetic acid; B2: 95% acetonitrile + 5% water + 5 mM […]
ammonium acetate + 40 µL/L acetic acid. The same gradient was applied for acidic and […]
buffered conditions: 99% A at 0 min, 99% A until 1 min, 99% - 0% A from 1 min to 4.0 min, […]
0% A until 5.0 min. Mass transitions for controls and compounds are depicted in the following […]

For orientation: Cmax means the peak of the concentration-time curve. By solubility is commonly meant the concentration that dissolves in the medium under given conditions. The solubility (thermodynamic) is the concentration in solution at equilibrium with solid.

A value given as a limit tells only on which side of the number the result lay.

Regarding `O=C(CCc1ccc(O[C@@H]2O[C@H](CO)[C@H](O)[C@H](O)[C@H]2O)cc1)Nc1ccc(OCCOc2ccc(NC(=O)CCc3ccc(O[C@@H]4O[C@H](CO)[C@H](O)[C@H](O)[C@H]4O)cc3)cn2)nc1` [Compound H2], in data set [1], the “Time to clearance from mouse plasma” value is at most 1 h and the Cmax was found to be 63 µM.

In the case of `O=C(CCc1ccc(O[C@@H]2O[C@H](CO)[C@H](O)[C@H](O)[C@H]2O)cc1)Nc1ccc(CCc2ccc(NC(=O)CCc3ccc(O[C@@H]4O[C@H](CO)[C@H](O)[C@H](O)[C@H]4O)cc3)cc2S(=O)(=O)O)c(S(=O)(=O)O)c1` [Compound L2], the solubility in data set [2] (TBS/Ca2+ buffer, pH 7.4, thermodynamic from solid, aqueous buffer, from solid, read-out: Solubility S (dissolved from solid form in aqueous buffer)) was above 1500 µM. Also, the “Increase in solubility versus parent bisacylhydrazones” value in data set [2] (pH 7.4) is recorded as “over 1000 fold”. The solubility (thermodynamic) in data set [2] (pH 7.4, aqueous buffer, thermodynamic from solid, TBS/Ca2+ buffer w/o DMSO, N=1, read-out: Solubility S (thermodynamic)) was above 1500 µM. The “PPB Human” value with plasma protein stood at 38.5 ± 12.4%. In addition, in data set [1], the “Time to clearance from mouse plasma” value was at most 1 h and the Cmax worked out at 13.4 µM.
